Data taken from patent US7455860B2, “Dietary supplement formulation for controlling inflammation and cancer” (Laila Nutraceuticals, priority 2005, dated 2008).
Several values for one entry are separate records, joined by “and”; a condition that tells them apart may be missing. Equal entries are not always repeated.

What was measured:
degenerative arthritis = details: treatment group; 20% in placebo group; cited from earlier work
[1] = test system: Freund's Adjuvant-Induced Arthritis; test: Freund's Adjuvant-Induced Arthritis in Wistar Albino rats (paw volume by Plethysmograph); format: in vivo
Protocol: Effect of 5-LOXIN compositions on Freund's Adjuvant-Induced Arthritis in Winstar Albino rats: Wistar Albino rats of either sex were selected randomly and divided into groups containing 6 rats (3 male and 3 female) each. The rats of treatment groups were administered orally a suspension of 5-LOXIN (15 mg/kg, p.o.) or glucosamine salt (135 mg/kg, p.o.) or curcuminoids (20 mg/kg, p.o.) or ginger (3 mg/kg, p.o.) or one fifth of a formulation containing unit doses of all the four ingredients [formulation I: 5-LOXIN (15 mg)+glucosamine (135 mg)+curcuminoids DP 95% (20 mg)+Ginger DP 15% total pungent compounds (3 mg)]or prednisolone (10 mg/kg, p.o.) in 0.5% CMC, for 30 days. The control group received 0.5% CMC. Following the drug treatment all animals were challenged, on 31st day, with 50 μl of complete Freund's adjuvant injection to the sub plantar region of right hind paw. The paw volume was measured before (V0) and after the injection of Freund's adjuvant at the end of 30, 60, 120, 180, 240 and 360 min by Plethysmograph. The paw oedema was measured everyday upto 17th day.

| SMILES | Improvement in degenerative arthritis (degenerative arthritis) | % protection ([1]; day 13, against control group mean oedema 0.478) | Day-13 E, ME (mean oedema of the group) ([1]; group mean, oral treatment for 30 days) | Paw Volume After Freund's Adjuvant, Day-13 E (oedema) ([1]; individual rat, Day-13 PV minus 0 hr, oral treatment for 30 days, hydrochloride) | Paw Volume After Freund's Adjuvant, Day-13 PV ([1]; individual rat, oral treatment for 30 days, adjuvant on 31st day, read on day 13, dose per sample in table, hydrochloride) |
| --- | --- | --- | --- | --- | --- |
| CS(C)(=O)=O [MSM, Methylsulfonylmethane] | 80% |  |  |  |  |
| Cl.N[C@H]1C(O)O[C@H](CO)[C@@H](O)[C@@H]1O (some centres unmarked) [Glucosamine, glucosamine hydrochloride] |  | 37.94% | 0.30 mL | 0.37 mL and 0.3 mL and 0.22 mL | 1.56 mL and 1.59 mL and 1.53 mL |
